Common to all, as to format: physicochemical
Data set [1] in a line: Crystal particle size by light microscope (visually observed). The following applies: for Size of particle (light microscope), 90% of crystals below: procedure of Example 1. Here is the method:
Particle size distribution is analyzed visually using light microscope or by laser diffraction using the following method: In table 1 below there are the results of experiments using different addition temperatures. Procedure is the same as above.

A short description of data set [2]: Volumetric particle size distribution by laser diffraction (Coulter LS230). The note with it: for Particle size distribution (laser diffraction) LDP 10 / Particle size distribution (laser diffraction) LDP 50 / Particle size distribution (laser diffraction) LDP 90: procedure of Example 1. As to the method:
Particle size distribution is analyzed visually using light microscope or by laser diffraction using the following method: Saturated 2-Propanol: To 250 ml of 2-propanol is added approx 1 g of tamsulosin HCl powder and sonicated at room temperature about 30 min. The mixture is let stand overnight, hereafter it is filtered through […] membrane filter. Sample Preparation About 30 mg of tamsulosin HCl is weighed in a 25 ml decanter. 2-4 drops of saturated 2-propanol is added to the sample and stirred with a glass rod. After that 4 ml of saturated 2-propanol is added and the sample is kept in ultra sound for 30 seconds before measuring volumetric particle size distribution using Coulter LS230, Laser Diffraction Particle Size Analyzer.

Data set [3] can be described thus: Solubility in alcoholic solvents.
[4] abbreviates: Example 2: 15% HCl added at 40° C., cooled to 20° C.
Where [5] appears, read: Example 3: Example 2 repeated, HCl addition temperature 20° C.

Each structure is given as a SMILES string. Structures can show the parent of a compound that is named as a salt.

2 compounds from patent US20090137844A1, “Crystallization process” (Fermion Oy, priority 2005, published 2009) can be followed below.

Take `CCOc1ccccc1OCCNC(C)Cc1ccc(OC)c(S(N)(=O)=O)c1` (centres unmarked) [tamsulosin hydrochloride, 5-[2-[[2-(2-ethoxyphenoxy)ethyl]amino]propyl]-2-methoxybenzene-sulfonamide]: the “Size of particle (light microscope), 90% of crystals below” value in data set [1] (HCl added at 0° C.) was found to be 90% < 3 μm; in data set [1] (HCl added at 10° C.) it was 90% < 5 μm; in data set [1] (HCl added at 20° C.) it was 90% < 10 μm; in data set [1] (HCl added at 30° C.) it was 90% < 15 μm; in data set [1] (HCl added at 40° C.), 90% < 30 μm; in data set [1] (HCl added at 80° C.) it was 90% < 250 μm. In addition, the “Size below which 90% of the crystals are (light microscope)” value in data set [1] (hydrochloride added at e.g. 80° C.) was “below 250 micrometers”; in data set [1] (hydrochloride added below about 30° C.), “below 15 micrometers”. Moreover, the “Crystal size distribution (laser diffraction) LDP 10” value is on record as 5 μm in data set [2] (setting [4]) and 3 μm in data set [2] (setting [5]). In addition, the “Crystal size distribution (laser diffraction) LDP 50” value is listed as 20 μm in data set [2] (setting [4]) and 14 μm in data set [2] (setting [5]). In addition, the “Crystal size distribution (laser diffraction) LDP 90” value in data set [2] (setting [4]) is 36 μm; in data set [2] (setting [5]) it was 29 μm. Also, the “Particle size distribution (laser diffraction) LDP 10” value in data set [2] (HCl added at 0° C.) is “LDP 10 = 1 μm”; in data set [2] (HCl added at 10° C.) it was “LDP 10 = 1 μm”; in data set [2] (HCl added at 20° C.) it was “LDP 10 = 2 μm”; in data set [2] (HCl added at 30° C.), “LDP 10 = 4 μm”; in data set [2] (HCl added at 40° C.) it was “LDP 10 = 9 μm”. Also, the “Particle size distribution (laser diffraction) LDP 50” value in data set [2] (HCl added at 0° C.) is on record as “LDP 50 = 3 μm”; in data set [2] (HCl added at 10° C.), “LDP 50 = 5 μm”; in data set [2] (HCl added at 20° C.) it was “LDP 50 = 7 μm”; in data set [2] (HCl added at 30° C.) it was “LDP 50 = 15 μm”; in data set [2] (HCl added at 40° C.), “LDP 50 = 29 μm”. For the same compound, the “Particle size distribution (laser diffraction) LDP 90” value in data set [2] (HCl added at 0° C.) is given as “LDP 90 = 12 μm”; in data set [2] (HCl added at 10° C.), “LDP 90 = 10 μm”; in data set [2] (HCl added at 20° C.) it was “LDP 90 = 17 μm”; in data set [2] (HCl added at 30° C.), “LDP 90 = 29 μm”; in data set [2] (HCl added at 40° C.) it was “LDP 90 = 55 μm”. Besides, the “Size below which 90% of the crystals are (laser diffraction)” value in data set [2] (addition temperature about 20° C.) is listed as “below 20 micrometers”; in data set [2] (addition temperature about 40° C.), “below 60 micrometers”.

For the compound `CCOc1ccccc1OCCNC(C)Cc1ccc(OC)c(S(N)(=O)=O)c1` (centres unmarked) [tamsulosin, 5-[2-[[2-(2-ethoxyphenoxy)ethyl]amino]propyl]-2-methoxybenzene-sulfonamide], the Solubility entry in data set [3] was “poorly soluble”.
